Values after ≈ are worked out from the molar mass of the structure shown. Where two headings read alike, the source gives them in different places.
What was measured:
S. aureus 13709 [1] = assay: Kill kinetics of ciprofloxacin with or without gels; assay type: cell-based, Staphylococcus aureus
Method: (§1) Growth was measured by sampling media placed above the thixogel and then quantifying colony forming units (CFU's) by serial dilution.

P. aeruginosa 27853 [2] = assay: as above; assay type: cell-based, Pseudomonas aeruginosa
Method: as §1

P. aeruginosa 27853 [3] = assay: Minimum Inhibitory Concentration (MIC) of antibiotics with or without thixogel; assay type: cell-based, Pseudomonas aeruginosa
Source text: (§2) The Minimum Inhibitory Concentration (MIC) defines the lowest antibiotic concentration that inhibits 99.9% of bacterial growth.

S. aureus 13709 [4] = assay: as above; assay type: cell-based, Staphylococcus aureus
Source text: as §2

[5] = ciprofloxacin 30 μg/mL loaded in HA and SF gels

O=C(O)c1cn(C2CC2)c2cc(N3CCNCC3)c(F)cc2c1=O [Ciprofloxacin, ciprofloxacin]
inhibition at 30 µg/mL (S. aureus 13709 [1]; Staphylococcus aureus, 13709, gel loaded drug, 30 μg/mL, read-out: inhibition of bacterial growth): 100% | time to complete inhibition of bacterial growth (S. aureus 13709 [1]; [5]): around four | inhibition of bacterial growth (S. aureus 13709 [1]; gel loaded drug, 30 μg/mL): more than 3 log10 | inhibition at 30 µg/mL (P. aeruginosa 27853 [2]; Pseudomonas aeruginosa, 27853, gel loaded drug, 30 μg/mL, read-out: inhibition of bacterial growth): 100% | time to complete inhibition of bacterial growth (P. aeruginosa 27853 [2]; [5]): around four | inhibition of bacterial growth (P. aeruginosa 27853 [2]; gel loaded drug, 30 μg/mL): more than 3 log10

C[C@@H](O)[C@H]1C(=O)N2C(C(=O)O)=C(SCCN=CN)C[C@H]12 [Imipenem, imipenem]
MIC (P. aeruginosa 27853 [3]; Pseudomonas aeruginosa, 27853, P. aeruginosa 27853, No Gel, read-out: Minimum Inhibitory Concentrations (MIC)): 2 µg/mL (≈ 6.68 µM) | MIC (P. aeruginosa 27853 [3]; Pseudomonas aeruginosa, 27853, P. aeruginosa 27853, antibiotic delivered in HA thixogel, read-out: Minimum Inhibitory Concentrations (MIC)): 4 µg/mL (≈ 13.4 µM) | MIC (P. aeruginosa 27853 [3]; Pseudomonas aeruginosa, 27853, P. aeruginosa 27853, antibiotic delivered in SF thixogel, read-out: Minimum Inhibitory Concentrations (MIC)): > 4 µg/mL | MIC (S. aureus 13709 [4]; Staphylococcus aureus, 13709, S. aureus 13709, No Gel, read-out: Minimum Inhibitory Concentrations (MIC)): 0.032 µg/mL (≈ 0.107 µM) | MIC (S. aureus 13709 [4]; Staphylococcus aureus, 13709, S. aureus 13709, antibiotic delivered in HA thixogel, read-out: Minimum Inhibitory Concentrations (MIC)): < 0.032 µg/mL | MIC (S. aureus 13709 [4]; Staphylococcus aureus, 13709, S. aureus 13709, antibiotic delivered in SF thixogel, read-out: Minimum Inhibitory Concentrations (MIC)): 0.125 µg/mL (≈ 0.418 µM)

CN[C@H](CC(C)C)C(=O)N[C@H]1C(=O)N[C@@H](CC(N)=O)C(=O)N[C@H]2C(=O)N[C@H]3C(=O)N[C@H](C(=O)N[C@H](C(=O)O)c4cc(O)cc(O)c4-c4cc3ccc4O)[C@H](O)c3ccc(c(Cl)c3)Oc3cc2cc(c3O[C@@H]2O[C@H](CO)[C@@H](O)[C@H](O)[C@H]2O[C@H]2C[C@](C)(N)[C@H](O)[C@H](C)O2)Oc2ccc(cc2Cl)[C@H]1O [Vancomycin, vancomycin]
potency / coverage of both pathogenic bacteria (P. aeruginosa 27853 [3]; P. aeruginosa (Gram negative)): did not give coverage of both | MIC (P. aeruginosa 27853 [3]; Pseudomonas aeruginosa, 27853, read-out: Minimum Inhibitory Concentrations (MIC), P. aeruginosa 27853, No Gel): > 4 µg/mL | MIC (P. aeruginosa 27853 [3]; Pseudomonas aeruginosa, 27853, read-out: Minimum Inhibitory Concentrations (MIC), P. aeruginosa 27853, antibiotic delivered in HA thixogel): > 32 µg/mL | MIC (P. aeruginosa 27853 [3]; Pseudomonas aeruginosa, 27853, read-out: Minimum Inhibitory Concentrations (MIC), P. aeruginosa 27853, antibiotic delivered in SF thixogel): > 32 µg/mL | potency / coverage of both pathogenic bacteria (S. aureus 13709 [4]; S. aureus (Gram positive)): did not give coverage of both | MIC (S. aureus 13709 [4]; Staphylococcus aureus, 13709, read-out: Minimum Inhibitory Concentrations (MIC), S. aureus 13709, No Gel): 2 µg/mL (≈ 1.38 µM) | MIC (S. aureus 13709 [4]; Staphylococcus aureus, 13709, read-out: Minimum Inhibitory Concentrations (MIC), S. aureus 13709, antibiotic delivered in HA thixogel): 16 µg/mL (≈ 11 µM) | MIC (S. aureus 13709 [4]; Staphylococcus aureus, 13709, read-out: Minimum Inhibitory Concentrations (MIC), S. aureus 13709, antibiotic delivered in SF thixogel): 4 µg/mL (≈ 2.76 µM)

gentamycin
effect of the gels (SF and HA) upon potency (P. aeruginosa 27853 [3]; P. aeruginosa): deleterious effect upon potency | Minimum Inhibitory Concentrations (MIC) (P. aeruginosa 27853 [3]; P. aeruginosa 27853, No Gel): 2 µg/mL | Minimum Inhibitory Concentrations (MIC) (P. aeruginosa 27853 [3]; P. aeruginosa 27853, antibiotic delivered in HA thixogel): 32 µg/mL | Minimum Inhibitory Concentrations (MIC) (P. aeruginosa 27853 [3]; P. aeruginosa 27853, antibiotic delivered in SF thixogel): 32 µg/mL | effect of the gels (SF and HA) upon potency (S. aureus 13709 [4]; S. aureus): deleterious effect upon potency | Minimum Inhibitory Concentrations (MIC) (S. aureus 13709 [4]; S. aureus 13709, No Gel): 1 µg/mL | Minimum Inhibitory Concentrations (MIC) (S. aureus 13709 [4]; S. aureus 13709, antibiotic delivered in HA thixogel): 32 µg/mL | Minimum Inhibitory Concentrations (MIC) (S. aureus 13709 [4]; S. aureus 13709, antibiotic delivered in SF thixogel): 8 µg/mL
